For one data set, the target named is T1, α4β1 integrin (Homo sapiens, UniProt P05556+P13612).
T1 construct: adding a volume of 80 μL consisted of 1.3×10^5 Molt4 cells; endogenous in cells; host or cells: Molt4 T-cell leukemia cells
Briefly: Molt4 T-cell leukemia adhesion assay (inhibition of α4β1-mediated cell adhesion to CS-1 peptide). In kind it is cell-based. The text has this:
α4β1 integrins are cell surface heterodimeric glycoproteins that mediate cell adhesion to vascular cell adhesion molecule-1 (VCAM-1 or CD 106) as well as to extracellular matrix (ECM) protein fibronectin (FN). Integrin expression and function depend on cell activation. The dynamic changes in integrin affinity, avidity, or activation state are implicated in cell migration, survival and apoptosis, cancer development and metastasis. Binding affinities (IC50s) of the ligands were studied in a Molt4 T-cell leukemia adhesion assay by inhibiting the α4β1-mediated cell adhesion to CS-1 peptide ([…]), which is the binding motif of fibronectin to α4β1 receptor.
General Procedure for Cell Adhesion Assay:
96-well plates were prepared by coating them with 5 μg/mL neutravidin for a one-hour period, followed by adding […] biotin-conjugated CS-1 peptide. The wells were then blocked with 1% […] in phosphate buffer saline (PBS) solution, followed by adding a volume of 80 μL consisted of 1.3×10^5 Molt4 cells, and finally different dilutions of tested ligands in binding buffer (1 mM Mn^2+ TBS), were added to each well. To allow binding, the plates were incubated for 30 min at 37° C., followed by washing of unbound cells with PBS. Bound cells were fixed with 10% formalin buffered in phosphate for 30 min and stained with 0.5% crystal violet. After washing and drying at room temperature, the dye was dissolved in 1% SDS, and absorbance at 570 nm was measured using a 96-well TECAN OD UV/Vis spectrophotometer. Inhibition was calculated as a percentage resulting from the concentration-dependent curve.

The conditions of data set [1]: compound by itself; cited from earlier work.
The conditions of data set [2]: xenograft model, optical and radioimaging; cited from earlier work.

Like-named read-outs stand apart in the source and are kept apart here.

In general, IC50 refers to the point on the concentration scale where inhibition reaches its midpoint. Higher therefore signals weaker potency.

T1 sequence (P13612 34-1032): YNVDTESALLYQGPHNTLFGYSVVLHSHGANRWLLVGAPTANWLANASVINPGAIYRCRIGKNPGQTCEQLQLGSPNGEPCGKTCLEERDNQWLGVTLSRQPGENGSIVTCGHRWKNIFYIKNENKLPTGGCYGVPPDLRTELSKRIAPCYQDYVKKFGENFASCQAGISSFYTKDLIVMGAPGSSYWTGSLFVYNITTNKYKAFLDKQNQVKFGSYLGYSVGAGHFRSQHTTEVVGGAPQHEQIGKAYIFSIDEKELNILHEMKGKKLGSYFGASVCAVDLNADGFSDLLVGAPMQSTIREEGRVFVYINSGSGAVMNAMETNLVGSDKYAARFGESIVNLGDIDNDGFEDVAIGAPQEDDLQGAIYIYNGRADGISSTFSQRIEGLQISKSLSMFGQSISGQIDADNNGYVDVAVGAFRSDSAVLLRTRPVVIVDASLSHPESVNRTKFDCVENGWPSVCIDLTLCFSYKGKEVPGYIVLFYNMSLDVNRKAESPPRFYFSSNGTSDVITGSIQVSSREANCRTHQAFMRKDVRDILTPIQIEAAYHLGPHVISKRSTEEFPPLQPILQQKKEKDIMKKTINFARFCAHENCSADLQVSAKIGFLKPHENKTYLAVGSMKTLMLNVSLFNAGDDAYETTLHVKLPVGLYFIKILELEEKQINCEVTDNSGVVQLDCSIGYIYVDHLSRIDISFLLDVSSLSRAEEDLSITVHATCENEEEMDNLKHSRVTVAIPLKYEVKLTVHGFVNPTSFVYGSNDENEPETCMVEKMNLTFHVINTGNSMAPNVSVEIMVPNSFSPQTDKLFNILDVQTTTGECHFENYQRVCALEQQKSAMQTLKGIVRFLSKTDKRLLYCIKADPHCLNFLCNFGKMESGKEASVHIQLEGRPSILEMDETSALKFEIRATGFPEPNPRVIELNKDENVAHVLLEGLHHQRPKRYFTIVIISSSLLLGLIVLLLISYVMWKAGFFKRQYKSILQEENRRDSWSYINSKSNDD
T1 sequence (P05556 21-798): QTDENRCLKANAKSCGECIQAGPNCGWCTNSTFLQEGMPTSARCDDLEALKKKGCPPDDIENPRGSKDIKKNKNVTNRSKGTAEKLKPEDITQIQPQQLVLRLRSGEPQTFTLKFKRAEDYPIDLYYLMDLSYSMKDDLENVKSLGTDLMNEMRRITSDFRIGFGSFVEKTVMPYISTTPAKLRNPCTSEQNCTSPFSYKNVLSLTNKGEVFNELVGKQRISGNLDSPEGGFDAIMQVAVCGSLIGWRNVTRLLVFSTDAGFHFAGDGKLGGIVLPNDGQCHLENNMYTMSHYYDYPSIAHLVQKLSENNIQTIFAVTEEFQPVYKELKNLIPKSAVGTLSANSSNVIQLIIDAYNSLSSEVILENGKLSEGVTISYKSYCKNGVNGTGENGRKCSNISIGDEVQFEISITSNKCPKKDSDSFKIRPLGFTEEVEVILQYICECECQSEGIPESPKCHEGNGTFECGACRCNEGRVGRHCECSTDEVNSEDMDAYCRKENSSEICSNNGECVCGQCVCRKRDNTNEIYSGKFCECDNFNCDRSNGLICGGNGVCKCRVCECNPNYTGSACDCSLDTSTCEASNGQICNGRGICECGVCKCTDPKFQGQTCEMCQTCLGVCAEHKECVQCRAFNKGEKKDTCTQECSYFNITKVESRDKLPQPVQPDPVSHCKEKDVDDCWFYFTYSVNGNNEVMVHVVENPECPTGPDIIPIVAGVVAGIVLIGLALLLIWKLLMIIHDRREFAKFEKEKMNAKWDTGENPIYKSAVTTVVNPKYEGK

The compound `NC(=O)C1(NC(=O)[C@H](CCCC(=O)O)NC(=O)[C@H](CCCCNC(=O)/C=C/c2cccnc2)NC(=O)c2ccc(Nc3nc4cc(Br)ccc4[nH]3)cc2)CCCCC1` [KLCA12] showed an IC50 at α4β1 integrin (Molt4 cells, adhesion to biotin-conjugated CS-1 peptide, 1 mM Mn2+ TBS, 30 min at 37° C.) of 0.115 nM. This lies in the sub-nanomolar range.
`NC(=O)C1(NC(=O)C(CCCC(=O)O)NC(=O)C(CCCCNC(=O)C=Cc2cccnc2)NC(=O)Cc2ccc(Nc3nc4ccccc4s3)cc2)CCCCC1` (stereo not drawn) [KLCA14] showed an IC50 against α4β1 integrin of 0.053 nM. This counts as picomolar.
The compound `Cc1cccc2oc(Nc3ccc(CC(=O)NC(CCCCNC(=O)C=Cc4cccnc4)C(=O)NC(CCCC(=O)O)C(=O)NC4(C(N)=O)CCCCC4)cc3)nc12` (stereo not drawn) [KLCA15] displayed an IC50 at α4β1 integrin of 4 nM.
With `NC(=O)C1(NC(=O)C(CCCC(=O)O)NC(=O)C(CCCCNC(=O)C=Cc2cccnc2)NC(=O)Cc2ccc(Nc3nc4ccccc4o3)cc2)CCCCC1` (stereo not drawn) [KLCA16], the IC50 against α4β1 integrin came out at 2 nM.
On to `Cc1ccccc1NC(=O)Nc1ccc(CC(=O)N[C@@H](CCCCNC(=O)/C=C/c2cccnc2)C(=O)N[C@@H](CCCC(=O)O)C(=O)NC2(C(N)=O)CCCCC2)cc1` [LLP2A], for which the water solubility entry in data set [1] is given as “not very water soluble”. Besides, in data set [2], the “uptake in the kidneys” value was “rather high uptake in the kidneys”.

The values are drawn from patent US8486370B2, “Heterocyclic ligands for integrin imaging and therapy” (The Regents of the University of California, priority 2006, dated 2013).
